Data: patent publication US20230174523A1, “BENZENESULFONAMIDE DERIVATIVES AS TRAP1 MODULATORS AND USES THEREOF” (Amathus Therapeutics, Inc., priority 2020, published 2023)

Target: T1, TRAP1 enzyme (Homo sapiens, UniProt Q12931)
T1 sequence (Q12931 60-704): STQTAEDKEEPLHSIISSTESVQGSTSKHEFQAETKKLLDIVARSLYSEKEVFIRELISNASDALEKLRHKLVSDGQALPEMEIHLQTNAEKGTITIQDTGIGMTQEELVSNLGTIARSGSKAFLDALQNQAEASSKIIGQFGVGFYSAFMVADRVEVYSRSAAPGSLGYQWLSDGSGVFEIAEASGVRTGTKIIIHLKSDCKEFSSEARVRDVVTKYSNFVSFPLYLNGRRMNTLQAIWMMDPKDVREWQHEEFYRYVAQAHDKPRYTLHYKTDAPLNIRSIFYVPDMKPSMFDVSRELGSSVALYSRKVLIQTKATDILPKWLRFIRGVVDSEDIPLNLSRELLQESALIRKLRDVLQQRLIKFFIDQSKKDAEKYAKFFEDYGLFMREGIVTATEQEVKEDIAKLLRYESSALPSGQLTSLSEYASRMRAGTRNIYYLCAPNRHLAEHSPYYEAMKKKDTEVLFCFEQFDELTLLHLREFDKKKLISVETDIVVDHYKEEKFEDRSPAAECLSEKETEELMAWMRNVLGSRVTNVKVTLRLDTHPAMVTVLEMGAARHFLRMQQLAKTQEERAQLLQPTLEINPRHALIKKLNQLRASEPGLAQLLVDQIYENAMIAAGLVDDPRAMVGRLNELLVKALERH
Assay: ADP Glo assay of TRAP1 ATPase activity
Format: biochemical
Settings: for EC50: TRAP1 ATPase activation, 150 nM Trap1, 20 μM ATP, geometric mean, read-out: ADP GLO DRC: GeoMean EC50; for Emax: read-out: ADP GLO DRC: Mean Emax
Procedure: Potency of test compounds to modulate the ATPase activity of TRAP1 enzyme was evaluated using ADP Glo assay. The assay is based on quantification of the ADP generated from ATP in the ATPase reaction. The assay is performed in two steps: first, after the ATPase reaction, an equal volume of ADP-Glo™ Reagent is added to terminate the ATPase reaction and deplete the remaining ATP. Second, the Kinase Detection Reagent is added to simultaneously convert ADP to ATP and allow the newly synthesized ATP to be measured using a luciferase/luciferin reaction.
All the assays were carried out in a 384-well Proxiplate. The buffer used was 25 mM Pipes pH-7.5, 40 mM KCl, 0.05 mM MgCl2, 0.025% BSA, 0.316 mM EGTA, 0.003% Empigen, 0.01% Igepal. 150 nM Trap1 enzyme was incubated with various concentrations of the test compound (0.79 μM-100 μM) at 37° C. for 30 mins (except in blank wells). 20 μM ATP was added to each well to start the reaction. The plate was spun for 1 min at 1200 rpm and then incubated at 37° C. for 60 mins. 5 μl of ADP Glo reagent was added to all the wells and spun the plate for 1 min at 1200 rpm and kept it on a shaker at ambient temperature for 60 mins. 10 μl of kinase detection mix was added to all the wells and the plate was read for Luminescence at 495 nm. The amount of ADP released was estimated from ATP/ADP standard curve generated at the same experimental conditions. Emax (Maximal percent activation) and EC50 (concentration for half maximal activation) were estimated by fitting the dose response data to a sigmoidal curve fitting equation using Graphpad Prism software V. 8.

EC50 [µM]	Emax [%]	SMILES
10 to 20	123 to 159	O=C(Nc1cccc(S(=O)(=O)Nc2ccc(Cl)cc2)c1)c1ncc(-c2ccccc2)o1 [Compound 438]
< 10	160 to 199	COc1ccc(NC(=O)c2cnc(-c3ccccc3)[nH]2)cc1S(=O)(=O)Nc1c(C)cc(Cl)cc1C [Compound 443]
10 to 20	160 to 199	COc1ccc(NC(=O)c2nnc(-c3ccccc3)[nH]2)cc1S(=O)(=O)Nc1ccc(Cl)cc1 [Compound 586, N-(3-(N-(4-chlorophenyl)sulfamoyl)-4-methoxyphenyl)-5-phenyl-4H-1,2,4-triazole-3-carboxamide]
< 10	160 to 199	O=C(Nc1ccc(F)c(S(=O)(=O)Nc2ccc(Cl)cc2)c1)c1ccccc1C(=O)c1ccccc1 [Compound 681]
20 to 100	123 to 159	Cc1cc(Cl)nc(Cl)c1C(=O)Nc1ccc(F)c(S(=O)(=O)Nc2ccc(Cl)cc2)c1 [Compound 691]
20 to 100	123 to 159	CC(C)(C)OC(=O)c1ccccc1C(=O)Nc1ccc(F)c(S(=O)(=O)Nc2ccc(Cl)cc2)c1 [Compound 694]
10 to 20	200 to 300	CCOc1ncccc1C(=O)Nc1ccc(F)c(S(=O)(=O)Nc2ccc(Cl)cc2)c1 [Compound 704]
20 to 100	123 to 159	Cc1nc(C(=O)Nc2ccc(F)c(S(=O)(=O)Nc3ccc(Cl)cc3)c2)c(C)s1 [Compound 716]
20 to 100	200 to 300	Cc1cc(C(=O)Nc2ccc(F)c(S(=O)(=O)Nc3ccc(Cl)cc3)c2)c2c(C)noc2n1 [Compound 736]
10 to 20	123 to 159	O=C(Nc1ccc(F)c(S(=O)(=O)Nc2ccc(Cl)cc2)c1)c1cccc2c1OC(F)(F)O2 [Compound 737]
10 to 20	160 to 199	Cc1noc(C(C)C)c1C(=O)Nc1ccc(F)c(S(=O)(=O)Nc2ccc(Cl)cc2)c1 [Compound 751]
20 to 100	123 to 159	CCOc1ccsc1C(=O)Nc1ccc(F)c(S(=O)(=O)Nc2ccc(Cl)cc2)c1 [Compound 765]
20 to 100	160 to 199	O=C(Nc1ccc(F)c(S(=O)(=O)Nc2ccc(Cl)cc2)c1)c1cnccc1-c1ccccc1 [Compound 770]
10 to 20	123 to 159	O=C(Nc1ccc(F)c(S(=O)(=O)Nc2ccc(Cl)cc2)c1)c1cccc2cnccc12 [Compound 773]
10 to 20	123 to 159	COc1cc(C(=O)Nc2ccc(F)c(S(=O)(=O)Nc3ccc(Cl)cc3)c2)cc(Cl)c1OC [Compound 775]
10 to 20	160 to 199	Cc1ncc(Br)cc1C(=O)Nc1ccc(F)c(S(=O)(=O)Nc2ccc(Cl)cc2)c1 [Compound 795]
< 10	160 to 199	Cc1cc(C)n(Cc2cccc(C(=O)Nc3ccc(F)c(S(=O)(=O)Nc4ccc(Cl)cc4)c3)c2)n1 [Compound 807]
10 to 20	123 to 159	O=C(Nc1ccc(F)c(S(=O)(=O)Nc2ccc(Cl)cc2)c1)c1cnc(Cl)cc1Cl [Compound 815]
20 to 100	160 to 199	Cn1ncc(C(=O)Nc2ccc(F)c(S(=O)(=O)Nc3ccc(Cl)cc3)c2)c1-n1cccc1 [Compound 817]
10 to 20	160 to 199	CCS(=O)(=O)c1ccc(OC)c(C(=O)Nc2ccc(F)c(S(=O)(=O)Nc3ccc(Cl)cc3)c2)c1 [Compound 822]
20 to 100	200 to 300	Cc1c(Br)cncc1C(=O)Nc1ccc(F)c(S(=O)(=O)Nc2ccc(Cl)cc2)c1 [Compound 826]
20 to 100	123 to 159	N#Cc1ccc(C(=O)Nc2ccc(F)c(S(=O)(=O)Nc3ccc(Cl)cc3)c2)c(C(F)(F)F)n1 [Compound 827]
20 to 100	160 to 199	CCc1noc(CC)c1C(=O)Nc1ccc(F)c(S(=O)(=O)Nc2ccc(Cl)cc2)c1 [Compound 830]
10 to 20	123 to 159	Cc1nc(C(=O)Nc2ccc(F)c(S(=O)(=O)Nc3ccc(Cl)cc3)c2)nn1-c1ccc(F)cc1 [Compound 835]
10 to 20	123 to 159	COc1ccc(-c2noc(C)c2C(=O)Nc2ccc(F)c(S(=O)(=O)Nc3ccc(Cl)cc3)c2)cc1 [Compound 838]

The remaining lines, values behind:

SMILES	EC50 [µM]	Emax [%]
COc1ccc(NC(=O)c2cnc(-c3ccccc3)[nH]2)cc1S(=O)(=O)Nc1c(C)cccc1C [Compound 408]	< 10	200 to 300
COc1ccc(NC(=O)c2cnc(-c3ccccc3)[nH]2)cc1S(=O)(=O)N(CCCCCCN)c1ccc(Br)cc1 [Compound 454, N-(3-(N-(6-aminohexyl)-N-(4-bromophenyl)sulfamoyl)-4-methoxyphenyl)-2-phenyl-1H-imidazole-5-carboxamide]	< 10	160 to 199
COc1ccc(NC(=O)c2cnc(-c3ccccc3)s2)cc1S(=O)(=O)Nc1c(C)cccc1C [Compound 467]	< 10	160 to 199
COc1ccc(NC(=O)c2cnc(-c3ccccc3)s2)cc1S(=O)(=O)Nc1ccc(Cl)cc1 [Compound 468]	< 10	160 to 199
COc1ccc(NC(=O)c2ocnc2C(C)C)cc1S(=O)(=O)Nc1ccc(Cl)cc1 [Compound 596]	10 to 20	160 to 199
CCCn1cc(C(=O)Nc2ccc(F)c(S(=O)(=O)Nc3ccc(Cl)cc3)c2)cn1 [Compound 683]	20 to 100	200 to 300
Cn1ncc(I)c1C(=O)Nc1ccc(F)c(S(=O)(=O)Nc2ccc(Cl)cc2)c1 [Compound 689]	20 to 100	160 to 199
O=C(Nc1ccc(F)c(S(=O)(=O)Nc2ccc(Cl)cc2)c1)c1cccc(-c2cncnc2)c1 [Compound 690]	< 10	160 to 199
O=C(Nc1ccc(F)c(S(=O)(=O)Nc2ccc(Cl)cc2)c1)c1nccnc1C(F)(F)F [Compound 710]	10 to 20	123 to 159
O=C(Nc1ccc(F)c(S(=O)(=O)Nc2ccc(Cl)cc2)c1)c1scnc1C1CC1 [Compound 724]	10 to 20	160 to 199
Cc1onc(-c2ccccc2Cl)c1C(=O)Nc1ccc(F)c(S(=O)(=O)Nc2ccc(Cl)cc2)c1 [Compound 728]	10 to 20	123 to 159
Cc1nccc(C(F)(F)F)c1C(=O)Nc1ccc(F)c(S(=O)(=O)Nc2ccc(Cl)cc2)c1 [Compound 734]	10 to 20	123 to 159
Cc1nc2cc(C(=O)Nc3ccc(F)c(S(=O)(=O)Nc4ccc(Cl)cc4)c3)ccc2n1-c1ccccc1 [Compound 735]	< 10	123 to 159
Cc1oc(C)c(C(=O)Nc2ccc(F)c(S(=O)(=O)Nc3ccc(Cl)cc3)c2)c1C [Compound 740]	10 to 20	123 to 159
O=C(Nc1ccc(F)c(S(=O)(=O)Nc2ccc(Cl)cc2)c1)c1csc(N2CCOCC2)n1 [Compound 745]	20 to 100	123 to 159
Cc1ccc(Sc2ncccc2C(=O)Nc2ccc(F)c(S(=O)(=O)Nc3ccc(Cl)cc3)c2)cc1 [Compound 764]	10 to 20	123 to 159
Cc1cc(C(=O)Nc2ccc(F)c(S(=O)(=O)Nc3ccc(Cl)cc3)c2)n(Cc2ccc(F)cc2)n1 [Compound 776]	10 to 20	123 to 159
O=C(Nc1ccc(F)c(S(=O)(=O)Nc2ccc(Cl)cc2)c1)c1cnccc1C(F)(F)F [Compound 784]	20 to 100	123 to 159
O=C(c1ccccc1)c1cccnc1C(=O)Nc1ccc(F)c(S(=O)(=O)Nc2ccc(Cl)cc2)c1 [Compound 836]	20 to 100	200 to 300
